Results from patent publication US12677830B2, “3-alkoxybenzamide derivative, and pest control agent” (Kumiai Chemical Industry Co., Ltd., priority 2020, dated 2026).

Columns and labels:
Assay type in all cases: in vivo
Nilaparvata lugens = test: Test for insecticidal activity against Nilaparvata lugens (rice sprout dip); conditions: 144 h, 500 ppm active ingredient (wettable powder in water), rice sprouts immersed, ten second instar larvae, 25° C., 6 days after the treatment, read-out: mortality rate
Procedure: [Test Example 3] Test for Insecticidal Activity Against Nilaparvata lugens
The wettable powder prepared in accordance with Formulation Example 2 was diluted with water to a concentration of 500 ppm as an active ingredient. The rice sprouts were immersed in the chemical solution, and placed in a plastic cup. Ten second instar larvae of Nilaparvata lugens were released into the plastic cup, and the cup was capped. Thereafter, the cup was placed in a room at constant temperature of 25° C. The number of dead insects was examined at 6 days after the treatment, and the mortality rate was calculated by the calculation formula of Equation 1. The number of replicate is one in each test.
(§1) The compound numbers of the compounds showing a mortality rate of 90% or more in this test are listed below.

Tetranychus urticae = test: Test for control effect against Tetranychus urticae (soybean seedling dip); conditions: 312 h, 500 ppm active ingredient (wettable powder in water), soybean seedling inoculated with 35 female adults immersed, 25° C., 13 days after the treatment, read-out: controlling value
Procedure: [Test Example 5] Test for Control Effect Against Tetranychus urticae
The wettable powder prepared in accordance with Formulation Example 2 was diluted with water to a concentration of 500 ppm as an active ingredient. A soybean seedling previously inoculated with 35 female adults of Tetranychus urticae was immersed in the chemical solution, and air-dried. The treated soybean seedling was placed in a room at constant temperature of 25° C. The number of surviving female adults was examined at 13 days after the treatment, and the controlling value was determined by the calculation formula of Equation 2. The number of replicate is one in each test.
The compound numbers of the compounds showing a controlling value of 90 or more in this test are listed below.

Aphis gossypii = test: Test for control effect against Aphis gossypii (cucumber seedling dip); conditions: 72 h, 500 ppm active ingredient (wettable powder in water), cucumber seedling inoculated with nymphs immersed, 25° C., 3 days after the treatment, read-out: mortality rate
Procedure: [Test Example 4] Test for Control Effect Against Aphis gossypii
The wettable powder prepared in accordance with Formulation Example 2 was diluted with water to a concentration of 500 ppm as an active ingredient. A cucumber seedling previously inoculated with Aphis gossypii nymphs was immersed in the chemical solution, and air-dried. The treated cucumber seedling was placed in a room at constant temperature of 25° C. The number of surviving insects was counted at 3 days after the treatment, and the mortality rate was calculated by the calculation formula of Equation 1. The number of replicate is one in each test.
as §1

Plutella xylostella = test: Test for insecticidal activity against Plutella xylostella (cabbage leaf dip); conditions: foliar, 144 h, 500 ppm active ingredient (wettable powder in water), cabbage leaves immersed, ten second instar larvae, 25° C., 6 days after the treatment, read-out: mortality rate
Procedure: [Test Example 1] Test for Insecticidal Activity Against Plutella xylostella
(§2) The wettable powder prepared in accordance with Formulation Example 2 was diluted with water to a concentration of 500 ppm as an active ingredient. Cabbage leaves were immersed in the chemical solution, air-dried, and then placed in a plastic cup. Ten second instar larvae of Plutella xylostella were released into the cup, and the cup was capped. Thereafter, the cup was placed in a room at constant temperature of 25° C. The number of dead insects was examined at 6 days after the treatment, and the mortality rate was calculated by the calculation formula of Equation 1. The number of replicate is one in each test.
as §1

Helicoverpa armigera = test: Test for insecticidal activity against Helicoverpa armigera (cabbage leaf dip); conditions: foliar, 144 h, 500 ppm active ingredient (wettable powder in water), cabbage leaves immersed, five hatching larvae, 25° C., 6 days after the treatment, read-out: mortality rate
Procedure: [Test Example 2] Test for Insecticidal Activity Against Helicoverpa armigera
as §2, with “Five hatching” for “Ten second instar”, “Helicoverpa armigera” for “Plutella xylostella”, “two” for “one”
as §1

Row | SMILES | mortality at 500 ppm (Nilaparvata lugens) | pest or weed control at 500 ppm (Tetranychus urticae) | mortality at 500 ppm (Aphis gossypii) | mortality at 500 ppm (Plutella xylostella) | mortality at 500 ppm (Helicoverpa armigera)
1 | N#CSCCCCCOc1cc(C(=O)NCC(F)(F)F)c(Cl)cc1F [Compound A-0752, 2-chloro-4-fluoro-5-[(5-thiocyanatopentyl)oxy]-N-(2,2,2-trifluoroethyl)benzamide] | ≥ 90% | – | – | – | –
2 | Cc1cc(F)c(OCCCCCSC(F)(F)F)cc1C(=O)NCC(F)(F)F [Compound A-4712, 4-fluoro-2-methyl-N-(2,2,2-trifluoroethyl)-5-({5-[(trifluoromethyl)thio]pentyl}oxy)benzamide] | – | ≥ 90% | – | – | –
3 | C[C@@H](COc1cc(C(=O)NCC(F)(F)F)c(Cl)cc1F)NS(=O)(=O)C(F)(F)F [Compound C-0006, (S)-2-chloro-4-fluoro-N-(2,2,2-trifluoroethyl)-5-{2-[(trifluoromethyl)sulfonamido]propoxy}benzamide] | ≥ 90% | ≥ 90% | ≥ 90% | ≥ 90% | ≥ 90%
4 | CC(COc1cc(C(=O)NCC(F)(F)F)c(Cl)cc1F)N(C(=O)OC(C)(C)C)S(=O)(=O)C(F)(F)F (stereo not shown) [Compound C-9422, tert-butyl(1-{4-chloro-2-fluoro-5-[(2,2,2-trifluoroethyl)carbamoyl]phenoxy}propan-2-yl)[(trifluoromethyl)sulfonyl]carbamate] | ≥ 90% | ≥ 90% | ≥ 90% | ≥ 90% | ≥ 90%
5 | CC(=O)N(CC(F)(F)F)C(=O)c1cc(OCCCCCSC(F)(F)F)c(F)cc1Cl [Compound A-6814, N-acetyl-2-chloro-4-fluoro-N-(2,2,2-trifluoroethyl)-5-({5-[(trifluoromethyl)thio]pentyl}oxy)benzamide] | ≥ 90% | ≥ 90% | – | – | –
6 | CC(COc1cc(C(=O)NCC(F)(F)F)c(Cl)cc1F)NS(=O)(=O)C(F)(F)F (stereo not shown) [Compound C-0004, 2-chloro-4-fluoro-N-(2,2,2-trifluoroethyl)-5-{2-[(trifluoromethyl)sulfonamido]propoxy}benzamide] | ≥ 90% | ≥ 90% | ≥ 90% | ≥ 90% | ≥ 90%
7 | N#CCN(CC(F)(F)F)C(=O)c1cc(OCCCCCSC(F)(F)F)c(F)cc1Cl [Compound A-6692, 2-chloro-N-(cyanomethyl)-4-fluoro-N-(2,2,2-trifluoroethyl)-5-({5-[(trifluoromethyl)thio]pentyl}oxy)benzamide] | – | ≥ 90% | – | ≥ 90% | –
8 | C[C@@H](COc1cc(C(=O)NC2(C#N)CC2)c(Cl)cc1F)NS(=O)(=O)C(F)(F)F [Compound C-2980, (S)-2-chloro-N-(1-cyanocyclopropyl)-4-fluoro-5-{2-[(trifluoromethyl)sulfonamido]propoxy}benzamide] | ≥ 90% | ≥ 90% | ≥ 90% | ≥ 90% | –
9 | CC(CCl)COc1cc(C(=O)NCC(F)(F)F)c(Cl)cc1F (stereo not shown) [Compound A-0037, 2-chloro-5-(3-chloro-2-methylpropoxy)-4-fluoro-N-(2,2,2-trifluoroethyl)benzamide] | – | ≥ 90% | – | – | –
10 | C[C@@H](COc1cc(C(=O)NC2CC2)c(Cl)cc1F)NS(=O)(=O)C(F)(F)F [Compound C-0130, (S)-2-chloro-N-cyclopropyl-4-fluoro-5-{2-[(trifluoromethyl)sulfonamido]propoxy}benzamide] | ≥ 90% | ≥ 90% | ≥ 90% | ≥ 90% | ≥ 90%
11 | O=C(NCC(F)(F)F)c1cc(OCCCCCBr)c(F)cc1Cl [Compound A-0030, 5-[(5-bromopentyl)oxy]-2-chloro-4-fluoro-N-(2,2,2-trifluoroethyl)benzamide] | – | ≥ 90% | – | – | –
12 | CC(=O)N(CC(F)(F)F)C(=O)c1cc(OCC(C)NS(=O)(=O)C(F)(F)F)c(F)cc1Cl (stereo not shown) [Compound C-4214, N-acetyl-2-chloro-4-fluoro-N-(2,2,2-trifluoroethyl)-5-{2-[(trifluoromethyl)sulfonamido]propoxy}benzamide] | ≥ 90% | ≥ 90% | ≥ 90% | ≥ 90% | ≥ 90%
13 | C[C@H](COc1cc(C(=O)NCC(F)(F)F)c(Cl)cc1F)NS(=O)(=O)C(F)(F)F [Compound C-0005, (R)-2-chloro-4-fluoro-N-(2,2,2-trifluoroethyl)-5-{2-[(trifluoromethyl)sulfonamido]propoxy}benzamide] | – | ≥ 90% | – | – | –
14 | Fc1cc(Cl)c(C(=S)NCC(F)(F)F)cc1OCCCCCSC(F)(F)F [Compound A-5172, 2-chloro-4-fluoro-N-(2,2,2-trifluoroethyl)-5-({5-[(trifluoromethyl)thio]pentyl}oxy)thiobenzamide] | – | ≥ 90% | – | – | –
15 | O=C(NCC(F)(F)F)c1cc(OCCCCCSC(F)(F)F)c(F)cc1Cl [Compound A-4689, 2-chloro-4-fluoro-N-(2,2,2-trifluoroethyl)-5-({5-[(trifluoromethyl)thio]pentyl}oxy)benzamide] | – | ≥ 90% | – | – | –
16 | CC(COc1cc(C(=O)NCC(F)(F)F)c(Cl)cc1F)CSC(F)(F)F (stereo not shown) [Compound B-0009, 2-chloro-4-fluoro-5-{2-methyl-3-[(trifluoromethyl)thio]propoxy}-N-(2,2,2-trifluoroethyl)benzamide] | ≥ 90% | ≥ 90% | ≥ 90% | ≥ 90% | ≥ 90%
17 | CC(COc1cc(C(=O)NCC(F)(F)F)c(Cl)cc1F)CSC#N (stereo not shown) [Compound A-0758, 2-chloro-4-fluoro-5-(2-methyl-3-thiocyanatopropoxy)-N-(2,2,2-trifluoroethyl)benzamide] | – | ≥ 90% | – | – | –
